ChEMBL document CHEMBL1649364, “Synthesis and antifungal activity of some substituted phenothiazines and related compounds” (2011)
Active and inactive are the calls of the source. The calls are words filed in the database; no cut-off is given here.

Tests used:
Candida albicans [1] = assay: Antifungal activity against Candida albicans by microdilution test; format: functional
Candida parapsilosis [2] = assay: Antifungal activity against Candida parapsilosis by microdilution test; format: functional
Nakaseomyces glabratus [3] = assay: Antifungal activity against Candida glabrata by microdilution test; format: functional
Pichia kudriavzevii [4] = assay: Antifungal activity against Candida krusei by microdilution test; format: functional
[5] = system: Meyerozyma guilliermondii; assay: Antifungal activity against Candida guilliermondii by microdilution test; format: functional
Cryptococcus neoformans [6] = assay: Antifungal activity against Cryptococcus neoformans by microdilution test; format: functional
[7] = Antifungal activity against Aspergillus fumigates by microdilution test; format: functional
Aspergillus flavus [8] = assay: Antifungal activity against Aspergillus flavus by microdilution test; format: functional
Aspergillus niger [9] = assay: Antifungal activity against Aspergillus niger by microdilution test; format: functional
Aspergillus nidulans [10] = assay: Antifungal activity against Aspergillus nidulans by microdilution test; format: functional, organism-based
Aspergillus terreus [11] = assay: Antifungal activity against Aspergillus terreus by microdilution test; format: functional
[12] = Antifungal activity against Cladophialophora carrionii by microdilution test; format: functional
Exophiala spinifera [13] = assay: Antifungal activity against Exophiala spinifera by microdilution test; format: functional
[14] = Antifungal activity against Exophiala oligosperma by microdilution test; format: functional
[15] = Antifungal activity against Exophiala xenobiotica by microdilution test; format: functional
Candida albicans [16] = assay: Antifungal activity against Candida albicans by diffusion test; format: functional, organism-based
Candida parapsilosis [17] = assay: Antifungal activity against Candida parapsilosis by diffusion test; format: functional, organism-based
Nakaseomyces glabratus [18] = assay: Antifungal activity against Candida glabrata by diffusion test; format: functional, organism-based
Pichia kudriavzevii [19] = assay: Antifungal activity against Candida krusei by diffusion test; format: functional, organism-based
[20] = system: Meyerozyma guilliermondii; assay: Antifungal activity against Candida guilliermondii by diffusion test; format: functional, organism-based
Cryptococcus neoformans [21] = assay: Antifungal activity against Cryptococcus neoformans by diffusion test; format: functional, organism-based
[22] = Antifungal activity against Aspergillus fumigates by diffusion test; format: functional
Aspergillus flavus [23] = assay: Antifungal activity against Aspergillus flavus by diffusion test; format: functional, organism-based
Aspergillus niger [24] = assay: Antifungal activity against Aspergillus niger by diffusion test; format: functional, organism-based
Aspergillus nidulans [25] = assay: Antifungal activity against Aspergillus nidulans by diffusion test; format: functional, organism-based
Aspergillus terreus [26] = assay: Antifungal activity against Aspergillus terreus by diffusion test; format: functional, organism-based
[27] = Antifungal activity against Cladophialophora carrionii by diffusion test; format: functional
Exophiala spinifera [28] = assay: Antifungal activity against Exophiala spinifera by diffusion test; format: functional, organism-based
[29] = Antifungal activity against Exophiala oligosperma by diffusion test; format: functional
[30] = Antifungal activity against Exophiala xenobiotica by diffusion test; format: functional

In the case of CC(=O)N1c2ccccc2Sc2ccccc21, the Activity (Candida albicans [1]) is reported as “inactive”, the Activity (Candida parapsilosis [2]) is reported as “inactive” and the Activity (Nakaseomyces glabratus [3]) is reported as “inactive”. For the same molecule, the Activity (Pichia kudriavzevii [4]) was “inactive”, the Activity [5] was “inactive” and the Activity (Cryptococcus neoformans [6]) was “inactive”. The Activity [7] was “inactive”, the Activity (Aspergillus flavus [8]) was “inactive” and the Activity (Aspergillus niger [9]) was “inactive”. The Activity (Aspergillus nidulans [10]) was “inactive”, the Activity (Aspergillus terreus [11]) was “inactive” and the Activity [12] was “inactive”. The Activity (Exophiala spinifera [13]) was “inactive”, the Activity [14] was “inactive” and the Activity [15] was “inactive”.

With CN(C)S(=O)(=O)c1ccc2c(c1)N(C(=O)CCCl)c1ccccc1S2 the Activity (Candida albicans [1]) was “inactive”, the Activity (Candida parapsilosis [2]) was “inactive” and the Activity (Nakaseomyces glabratus [3]) was “inactive”. For the same molecule, the Activity (Pichia kudriavzevii [4]) was “inactive”, the Activity [5] was “inactive” and the Activity (Cryptococcus neoformans [6]) was “inactive”. For the same molecule, the Activity [7] was “inactive”, the Activity (Aspergillus flavus [8]) was “inactive” and the Activity (Aspergillus niger [9]) was “inactive”. For the same molecule, the Activity (Aspergillus nidulans [10]) was “inactive”, the Activity (Aspergillus terreus [11]) was “inactive” and the Activity [12] was “inactive”. For the same molecule, the Activity (Exophiala spinifera [13]) was “inactive”, the Activity [14] was “inactive” and the Activity [15] was “inactive”.

For O=C(CCl)n1c2ccccc2c2ccccc21, the Activity (Candida albicans [1]) was “inactive”, the Activity (Candida parapsilosis [2]) was “inactive” and the Activity (Nakaseomyces glabratus [3]) was “inactive”. For the same molecule, the Activity (Pichia kudriavzevii [4]) was “inactive”, the Activity [5] was “inactive” and the Activity (Cryptococcus neoformans [6]) was “inactive”. For the same molecule, the Activity [7] was “inactive”, the Activity (Aspergillus flavus [8]) was “inactive” and the Activity (Aspergillus niger [9]) was “inactive”. The Activity (Aspergillus nidulans [10]) was “inactive”, the Activity (Aspergillus terreus [11]) was “inactive” and the Activity [12] was “inactive”. The Activity (Exophiala spinifera [13]) was “inactive”, the Activity [14] was “inactive” and the Activity [15] was “inactive”.

For ClCCCN1c2ccccc2Sc2ccccc21, the Activity (Candida albicans [1]) was “inactive”, the Activity (Candida parapsilosis [2]) was “inactive” and the Activity (Nakaseomyces glabratus [3]) was “inactive”. For the same molecule, the Activity (Pichia kudriavzevii [4]) was “inactive”, the Activity [5] was “inactive” and the Activity (Cryptococcus neoformans [6]) was “inactive”. For the same molecule, the Activity [7] was “inactive”, the Activity (Aspergillus flavus [8]) was “inactive” and the Activity (Aspergillus niger [9]) was “inactive”. The Activity (Aspergillus nidulans [10]) was “inactive”, the Activity (Aspergillus terreus [11]) was “inactive” and the Activity [12] was “inactive”. The Activity (Exophiala spinifera [13]) was “inactive”, the Activity [14] was “inactive” and the Activity [15] was “inactive”.

In the case of CN(C)S(=O)(=O)c1ccc2c(c1)N(C(=O)CCl)c1ccccc1S2, the Activity (Candida albicans [1]) is reported as “inactive”, the Activity (Candida parapsilosis [2]) is reported as “inactive” and the Activity (Nakaseomyces glabratus [3]) is reported as “inactive”. For the same molecule, the Activity (Pichia kudriavzevii [4]) was “inactive”, the Activity [5] was “inactive” and the Activity (Cryptococcus neoformans [6]) was “inactive”. For the same molecule, the Activity [7] was “inactive”, the Activity (Aspergillus flavus [8]) was “inactive” and the Activity (Aspergillus niger [9]) was “inactive”. For the same molecule, the Activity (Aspergillus nidulans [10]) was “inactive”, the Activity (Aspergillus terreus [11]) was “inactive” and the Activity [12] was “inactive”. The Activity (Exophiala spinifera [13]) was “inactive”, the Activity [14] was “inactive” and the Activity [15] was “inactive”.

For O=C(CCl)N(c1ccccc1)c1ccccc1, the Activity (Candida albicans [1]) was “inactive”, the Activity (Candida parapsilosis [2]) was “inactive” and the Activity (Nakaseomyces glabratus [3]) was “inactive”. The Activity (Pichia kudriavzevii [4]) was “inactive”, the Activity [5] was “inactive” and the Activity (Cryptococcus neoformans [6]) was “inactive”. The Activity [7] was “inactive”, the Activity (Aspergillus flavus [8]) was “inactive” and the Activity (Aspergillus niger [9]) was “inactive”. For the same molecule, the Activity (Aspergillus nidulans [10]) was “inactive”, the Activity (Aspergillus terreus [11]) was “inactive” and the Activity [12] was “inactive”. For the same molecule, the Activity (Exophiala spinifera [13]) was “inactive”, the Activity [14] was “inactive” and the Activity [15] was “inactive”.

With OCCC1CCNCC1 the Activity (Candida albicans [1]) was “inactive”, the Activity (Candida parapsilosis [2]) was “inactive” and the Activity (Nakaseomyces glabratus [3]) was “inactive”. For the same molecule, the Activity (Pichia kudriavzevii [4]) was “inactive”, the Activity [5] was “inactive” and the Activity (Cryptococcus neoformans [6]) was “inactive”. For the same molecule, the Activity [7] was “inactive”, the Activity (Aspergillus flavus [8]) was “inactive” and the Activity (Aspergillus niger [9]) was “inactive”. For the same molecule, the Activity (Aspergillus nidulans [10]) was “inactive”, the Activity (Aspergillus terreus [11]) was “inactive” and the Activity [12] was “inactive”. For the same molecule, the Activity (Exophiala spinifera [13]) was “inactive”, the Activity [14] was “inactive” and the Activity [15] was “inactive”.

In the case of O=C(CCCl)N1c2ccccc2Sc2ccccc21, the Activity (Candida albicans [1]) is reported as “inactive”, the Activity (Candida parapsilosis [2]) is reported as “inactive” and the Activity (Nakaseomyces glabratus [3]) is reported as “inactive”. For the same molecule, the Activity (Pichia kudriavzevii [4]) was “inactive”, the Activity [5] was “inactive” and the Activity (Cryptococcus neoformans [6]) was “inactive”. The Activity [7] was “inactive”, the Activity (Aspergillus flavus [8]) was “inactive” and the Activity (Aspergillus niger [9]) was “inactive”. For the same molecule, the Activity (Aspergillus nidulans [10]) was “inactive”, the Activity (Aspergillus terreus [11]) was “inactive” and the Activity [12] was “inactive”. For the same molecule, the Activity (Exophiala spinifera [13]) was “inactive”, the Activity [14] was “inactive” and the Activity [15] was “inactive”.

For O=C(CCl)N1c2ccccc2Oc2ccccc21, the Activity (Candida albicans [1]) was “inactive”, the Activity (Candida parapsilosis [2]) was “inactive” and the Activity (Nakaseomyces glabratus [3]) was “inactive”. For the same molecule, the Activity (Pichia kudriavzevii [4]) was “inactive”, the Activity [5] was “inactive” and the Activity (Cryptococcus neoformans [6]) was “inactive”. For the same molecule, the Activity [7] was “inactive”, the Activity (Aspergillus flavus [8]) was “inactive” and the Activity (Aspergillus niger [9]) was “inactive”. For the same molecule, the Activity (Aspergillus nidulans [10]) was “inactive”, the Activity (Aspergillus terreus [11]) was “inactive” and the Activity [12] was “inactive”. For the same molecule, the Activity (Exophiala spinifera [13]) was “inactive”, the Activity [14] was “inactive” and the Activity [15] was “inactive”.

For CN(C)S(=O)(=O)c1ccc2c(c1)Nc1ccccc1S2, the Activity (Candida albicans [16]) was “Active”, the Activity (Candida parapsilosis [17]) was “Active” and the Activity (Nakaseomyces glabratus [18]) was “Active”. For the same molecule, the Activity (Pichia kudriavzevii [19]) was “Active”, the Activity [20] was “Active” and the Activity (Cryptococcus neoformans [21]) was “Active”. For the same molecule, the Activity [22] was “Active”, the Activity (Aspergillus flavus [23]) was “Active” and the Activity (Aspergillus niger [24]) was “Active”. The Activity (Aspergillus nidulans [25]) was “Active”, the Activity (Aspergillus terreus [26]) was “Active” and the Activity [27] was “Active”. For the same molecule, the Activity (Exophiala spinifera [28]) was “Active”, the Activity [29] was “Active” and the Activity [30] was “Active”. For the same molecule, the Activity (Candida albicans [1]) was “inactive”, the Activity (Candida parapsilosis [2]) was “inactive” and the Activity (Nakaseomyces glabratus [3]) was “inactive”. For the same molecule, the Activity (Pichia kudriavzevii [4]) was “inactive”, the Activity [5] was “inactive” and the Activity (Cryptococcus neoformans [6]) was “inactive”. For the same molecule, the Activity [7] was “inactive”, the Activity (Aspergillus flavus [8]) was “inactive” and the Activity (Aspergillus niger [9]) was “inactive”. For the same molecule, the Activity (Aspergillus nidulans [10]) was “inactive”, the Activity (Aspergillus terreus [11]) was “inactive” and the Activity [12] was “inactive”. The Activity (Exophiala spinifera [13]) was “inactive”, the Activity [14] was “inactive” and the Activity [15] was “inactive”.
